This note sets out measurements from patent US20250092039A1, “GLUTARIMIDE-CONTAINING PAN-KRAS-MUTANT DEGRADER COMPOUNDS AND USES THEREOF” (Tiger Biotherapeutics Inc., priority 2022, published 2025).

One series has as its target KRAS-G12V/RAF1 (Homo sapiens (Human), UniProt P01116, G12V). Nature of the series: KRAS/RAF1 binding inhibition assay (AlphaScreen). The procedure, abridged:
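Binding of GppNHp-loaded KRAS G12V to the RAF1 RBD was measured by AlphaScreen with test compound present in 2% DMSO (final), 60 min incubation at 4° C. Signals were converted to % inhibition versus DMSO, and IC50 was obtained by variable-slope nonlinear regression.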

A short description of series [1]: Pharmacokinetics following single intravenous and oral gavage dosing (AUC0-24h). In kind it is in vivo. The note with it: mouse, plasma, male CD-1 mice. In short, it runs like this: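 Male CD-1 mice (3 per route) given a single iv (5 mL/kg) or oral gavage (10 mL/kg) dose in 10% DMSO/30% PEG400/60% aqueous 20% hydroxypropyl-β-cyclodextrin. Plasma sampled to 24 h and measured by LC/MS/MS. PK parameters derived by non-compartmental analysis.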

Another series relates to SW620 cells. Nature of the series: 3D cell growth inhibition of SW620 cells carrying endogenous KRAS G12V mutation (CellTiter-Glo 3D, GI50). Conditions: Homo sapiens, SW-620, 144 h; SW620 cells, 6 days; read-out: SW620 3D cell growth GI50. The series is classed as cell-based. The procedure, abridged:
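SW620 cells (endogenous KRAS G12V) grown in 3D were dosed next day with compound from DMSO stocks at various concentrations, then incubated 6 days at 37° C.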
In general terms: In ATP-based viability assays light output follows the ATP content of the culture.

The target of another series is KRAS G12V (Homo sapiens (Human), UniProt P01116, G12V). Nature of the series: KRAS G12V degradation in SW620 cells (Western blot, DC50). In kind it is cell-based. The note with it: 24 hours. In short, it runs like this: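 SW620 cells (homozygous KRAS G12V) were treated with compound for 24 hours at 37° C. KRAS in lysates was measured by Western blot with fluorescent secondary antibodies and expressed relative to DMSO vehicle (100%). DC50 came from a four-parameter variable-slope dose-response fit.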
(In general: In western blotting, separated proteins are transferred to a membrane and probed.)

Where only a bound is given, the exact number is not on record here.

In general, IC50 refers to the midpoint of a concentration-inhibition curve. A word on the AUC(0-t): it is exposure summed from dosing to a finite time, without extrapolation to infinity. What is called GI50 is the concentration giving 50% growth inhibition. As usually defined, the DC50 is the concentration giving 50% degradation.

Sequence of KRAS G12V (P01116-2 other isoform, or with tags, fused parts or gaps G12V): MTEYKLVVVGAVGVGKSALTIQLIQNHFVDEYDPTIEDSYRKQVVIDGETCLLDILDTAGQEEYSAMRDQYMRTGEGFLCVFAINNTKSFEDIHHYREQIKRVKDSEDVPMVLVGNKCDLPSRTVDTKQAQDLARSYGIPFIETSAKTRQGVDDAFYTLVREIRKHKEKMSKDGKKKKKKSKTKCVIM
Sequence of KRAS-G12V/RAF1 (P01116-2 other isoform, or with tags, fused parts or gaps G12V): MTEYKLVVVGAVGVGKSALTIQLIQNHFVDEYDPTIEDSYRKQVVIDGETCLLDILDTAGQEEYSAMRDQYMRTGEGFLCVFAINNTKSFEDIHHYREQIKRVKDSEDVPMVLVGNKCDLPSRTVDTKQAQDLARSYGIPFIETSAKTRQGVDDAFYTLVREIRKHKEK

Consider `CCc1c(F)ccc2cc(O)cc(-c3ncc4c(N5CCC[C@]6(CCO6)C5)nc(OCC5(CN6CCC(C)(CN7CCN(c8ccc9c(c8)CN([C@H]8CCC(=O)NC8=O)C9=O)CC7)CC6)CC5)nc4c3F)c12` [Compound 217, (S)-3-(5-(4-((1-((1-(((7-(8-ethyl-7-fluoro-3-hydroxynaphthalen-1-yl)-8-fluoro-4-((S)-1-oxa-6-azaspiro[3.5]nonan-6-yl)pyrido[4,3-d]pyrimidin-2-yl)oxy)methyl)cyclopropyl)methyl)-4-methylpiperidin-4-yl)methyl)piperazin-1-yl)-1-oxoisoindolin-2-yl)piperidine-2,6-dione], for which, at KRAS-G12V/RAF1, the IC50 was in the range of 20 to 200 nM. In series [1] (single oral dose 15 mg/Kg), this compound returned an AUC(0-t) of 977 ng·h/mL. Besides, the GI50 in the series with SW620 cells was below 10 nM. The same compound registered a 50% degradation concentration (DC50) at KRAS G12V below 1 nM.

Regarding `CCc1c(F)ccc2cc(O)cc(-c3ncc4c(N5CCC[C@]6(CCO6)C5)nc(OCC5(CN6CCC7(CCC(N8CCN(c9ccc%10c(c9)CN([C@H]9CCC(=O)NC9=O)C%10=O)CC8)CC7)CC6)CC5)nc4c3F)c12` [Compound 219, (S)-3-(5-(4-(3-((1-(((7-(8-ethyl-7-fluoro-3-hydroxynaphthalen-1-yl)-8-fluoro-4-((S)-1-oxa-6-azaspiro[3.5]nonan-6-yl)pyrido[4,3-d]pyrimidin-2-yl)oxy)methyl)cyclopropyl)methyl)-3-azaspiro[5.5]undecan-9-yl)piperazin-1-yl)-1-oxoisoindolin-2-yl)piperidine-2,6-dione], the 50% inhibitory concentration (IC50) at KRAS-G12V/RAF1 was below 20 nM. In series [1] (single oral dose 30 mg/Kg), the exposure AUC(0-t) was determined as 718 ng·h/mL. In addition, the GI50 with SW620 cells is below 10 nM. The compound further returned a 50% degradation concentration (DC50) on KRAS G12V below 1 nM.
